Laboratory results reported in patent publication US10131664B2 (Celgene Quanticel Research, Inc., priority 2013, dated 2018).

Legend:
[1] = system: THP-1 (AML) cells; experiment: LSD1 CD11b cellular assay (flow cytometry); assay type: cell-based; conditions: Homo sapiens, 96 h; CD11b expression in THP-1 (AML) cells, flow cytometry, 4 days incubation; read-out: Cellular IC50
Experimental: To analyze LSD1 inhibitor efficacy in cells, a CD11b flow cytometry assay was performed. LSD1 inhibition induces CD11b expression in THP-1 (AML) cells which can be measured by flow cytometry. […] LSD1 test compounds were serially diluted in DMSO. The dilutions were added to each well accordingly to a final concentration of 0.2% DMSO. The cells were incubated at 37° C. in 5% CO2 for 4 days. 250 μL of each well was transferred to a well in a 96 well round bottom plate. The plate was centrifuged at 1200 rpm at 4 degrees Celsius in a Beckman Coulter Alegra 6KR centrifuge for 5 min. The media was removed leaving the cells at the bottom of the wells. The cells were washed in 100 μL cold HBSS (Hank's Balanced Salt Solution) plus 2% BSA (Bovine Serum Albumin) solution and centrifuged at 1200 rpm at 4° C. for 5 min. The wash was removed. […] The cells were centrifuged and washed two times in 100 μl HBSS plus 2% BSA. After the final spin the cells were resuspended in 100 μL HBSS plus 2% BSA containing 1 μg/mL DAPI (4′,6-diamidino-2-phenylindole). The cells were then analyzed by flow cytometry in a BD FACSAria machine. Cells were analyzed for CD11b expression. The percent of CD11b expressing cells for each inhibitor concentration was used to determine an IC50 curve for each compound analyzed.

[2] = target: full-length human LSD1 (Homo sapiens (Human), UniProt O60341); experiment: In vitro enzyme inhibition assay LSD-1 (TR-FRET); assay type: biochemical; conditions: TR-FRET, 0.1 nM LSD1, 50 nM H3K4me1-biotin peptide, 2 μM FAD, pH7.3; read-out: LSD1 IC50
Experimental: This assay determines the ability of a test compound to inhibit LSD1 demethylase activity.
The enzymatic assay of LSD1 activity is based on Time Resolved-Fluorescence Resonance Energy Transfer (TR-FRET) detection.
The ability of the compounds disclosed herein to inhibit LSD1 activity was quantified and the respective IC50 value was determined. Table 5 provides the IC50 values of various substituted heterocyclic compounds disclosed herein.

SMILES	IC50 [1]	IC50 [2]
N#Cc1ccc(-n2nc(C(=O)N3CCC[C@@H](N)C3)cc2OCc2ccncc2)cc1 [Example 58, 4-{3-[((3R)-3-aminopiperidyl)carbonyl]-5-(4-pyridylmethoxy)pyrazolyl}benzenecarbonitrile]	1000 to 10000 nM	< 100 nM
N#Cc1ccc(-c2nc(N3CCC4NCCC4C3)ncc2-c2cnn(CC(F)(F)F)c2)cc1 (stereo not shown) [Example 63, 4-[2-{1,2,3,3a,4,6,7,7a-octahydropyrrolo[3,2-c]pyridin-5-yl)-5-[1-(2,2,2-trifluoroethyl)pyrazol-4-yl]pyrimidin-4-yl]benzonitrile]	100 to 1000 nM	< 100 nM
Cn1ncc2nc(-c3cnc(N4CCC(N)CC4)nc3-c3ccc(C#N)cc3)ccc21 [Example 67, 4-[2-(4-aminopiperidin-1-yl)-5-(1-methylpyrazolo[4,3-b]pyridin-5-yl)pyrimidin-4-yl]benzonitrile]	100 to 1000 nM	< 100 nM
Cn1ncc2cc(-c3cnc(N4CCC(N)CC4)nc3-c3ccc(C#N)cc3)ncc21 [Example 69, 4-[2-(4-aminopiperidin-1-yl)-5-(1-methylpyrazolo[3,4-c]pyridin-5-yl)pyrimidin-4-yl]benzonitrile]	100 to 1000 nM	< 100 nM
N#Cc1ccc(-c2nc(N3CCC(N)CC3)ncc2-c2cnn(C3CCOC3)c2)cc1 (stereo not shown) [Example 71, 4-[2-(4-aminopiperidin-1-yl)-5-[1-(oxolan-3-yl)pyrazol-4-yl]pyrimidin-4-yl]benzonitrile]	100 to 1000 nM	< 100 nM
Cn1cc2cc(-c3cnc(N4CCC(N)CC4)nc3-c3ccc(C#N)cc3)ncc2n1 [Example 73, 4-[2-(4-aminopiperidin-1-yl)-5-(2-methylpyrazolo[3,4-c]pyridin-5-yl)pyrimidin-4-yl]benzonitrile]	100 to 1000 nM	< 100 nM
Cn1cc2ncc(-c3cnc(N4CCC(N)CC4)nc3-c3ccc(C#N)cc3)cc2n1 [Example 76, 4-[2-(4-aminopiperidin-1-yl)-5-(2-methylpyrazolo[4,3-b]pyridin-6-yl)pyrimidin-4-yl]benzonitrile]	100 to 1000 nM	< 100 nM
Cn1ccc2nc(-c3cnc(N4CCC(N)CC4)nc3-c3ccc(C#N)cc3)ccc21 [Example 77, 4-[2-(4-aminopiperidin-1-yl)-5-(1-methylpyrrolo[3,2-b]pyridin-5-yl)pyrimidin-4-yl]benzonitrile]	100 to 1000 nM	< 100 nM
N#Cc1ccc(-c2nc(N3CCC(N)CC3)ncc2-c2cnn(CC3CCOC3)c2)cc1 (stereo not shown) [Example 78, 4-[2-(4-aminopiperidin-1-yl)-5-[1-(oxolan-3-ylmethyl)pyrazol-4-yl]pyrimidin-4-yl]benzonitrile]	100 to 1000 nM	< 100 nM
COc1ccc(-c2cnc(N3CCC(N)CC3)nc2-c2ccc(C#N)cc2)cc1F [Example 84, 4-[2-(4-aminopiperidin-1-yl)-5-(3-fluoro-4-methoxyphenyl)pyrimidin-4-yl]benzonitrile]	< 100 nM	< 100 nM
Cn1cc2cc(-c3cnc(N4CCC(N)CC4)nc3-c3ccc(C#N)cc3)cnc2n1 [Example 85, 4-[2-(4-aminopiperidin-1-yl)-5-(2-methylpyrazolo[3,4-b]pyridin-5-yl)pyrimidin-4-yl]benzonitrile]	100 to 1000 nM	< 100 nM
Cn1cnc2cc(-c3cnc(N4CCC(N)CC4)nc3-c3ccc(C#N)c(F)c3)ccc21 [Example 87, 4-[2-(4-aminopiperidin-1-yl)-5-(1-methylbenzimidazol-5-yl)pyrimidin-4-yl]-2-fluorobenzonitrile]	< 100 nM	< 100 nM
CNC1CCN(c2ncc(-c3cnn(CC(F)(F)F)c3)c(-c3ccc(C#N)c(F)c3)n2)CC1 [Example 89, 2-fluoro-4-[2-[4-(methylamino)piperidin-1-yl]-5-[1-(2,2,2-trifluoroethyl)pyrazol-4-yl]pyrimidin-4-yl]benzonitrile]	< 100 nM	< 100 nM
N#Cc1ccc(-c2nc(N3CCC(N)CC3)ncc2-c2ccc3nc[nH]c3c2)cc1 [Example 91, 4-[2-(4-aminopiperidin-1-yl)-5-(3H-benzimidazol-5-yl)pyrimidin-4-yl]benzonitrile]	100 to 1000 nM	< 100 nM
Cc1c2cc(-c3cnc(N4CCC(N)CC4)nc3-c3ccc(C#N)c(F)c3)ccc2nn1C [Example 92, 4-[2-(4-aminopiperidin-1-yl)-5-(2,3-dimethylindazol-5-yl)pyrimidin-4-yl]-2-fluorobenzonitrile]	< 100 nM	< 100 nM
Cc1nn(C)c2ccc(-c3cnc(N4CCC(N)CC4)nc3-c3ccc(C#N)c(F)c3)cc12 [Example 93, 4-[2-(4-aminopiperidin-1-yl)-5-(1,3-dimethylindazol-5-yl)pyrmidin-4-yl]-2-fluorobenzonitrile]	< 100 nM	< 100 nM
N#Cc1ccc(-c2nc(N3CCC(N)CC3)ncc2C#CC2(O)CCOC2)cc1F (stereo not shown) [Example 94, 4-[2-(4-aminopiperidin-1-yl)-5-[2-(3-hydroxyoxolan-3-yl)ethynyl]pyrimidin-4-yl]-2-fluorobenzonitrile]	< 100 nM	< 100 nM
Cn1nc2ccc(-c3cnc(N4CCC(N)CC4)nc3-c3ccc(C#N)c(F)c3)cc2c1N [Example 95, 4-[5-(3-amino-2-methylindazol-5-yl)-2-(4-aminopiperidin-1-yl)pyrimidin-4-yl]-2-fluorobenzonitrile]	< 100 nM	< 100 nM

Other lines, results leading:

IC50 [1]	IC50 [2]	SMILES
< 100 nM	< 100 nM	Cn1cc2cc(-c3cnc(N4CCC(N)CC4)nc3-c3ccc(C#N)c(F)c3)ccc2n1 [Example 59, 4-[2-(4-aminopiperidin-1-yl)-5-(2-methylindazol-5-yl)pyrimidin-4-yl]-2-fluorobenzonitrile]
< 100 nM	< 100 nM	N#Cc1ccc(-c2nc(N3CCC(N)CC3)ncc2-c2cnn(CC(F)(F)F)c2)cc1 [Example 61, 4-[2-(4-aminopiperidin-1-yl)-5-[1-(2,2,2-trifluoroethyl)pyrazol-4-yl]pyrimidin-4-yl]benzonitrile]
< 100 nM	< 100 nM	N#Cc1ccc(-c2nc(N3CCC4(CCNC4)CC3)ncc2-c2cnn(CC(F)(F)F)c2)cc1 [Example 62, 4-[2-(2,8-diazaspiro[4.5]decan-8-yl)-5-[1-(2,2,2-trifluoroethyl)pyrazol-4-yl]pyrimidin-4-yl]benzonitrile]
< 100 nM	< 100 nM	Cn1ncc2cc(-c3cnc(N4CCC(N)CC4)nc3-c3ccc(C#N)cc3)cnc21 [Example 64, 4-[2-(4-aminopiperidin-1-yl)-5-(1-methylpyrazolo[3,4-b]pyridin-5-yl)pyrimidin-4-yl]benzonitrile]
< 100 nM	< 100 nM	Cn1ncc2cc(-c3cnc(N4CCC5CNCC5CC4)nc3-c3ccc(C#N)cc3)cnc21 (stereo not shown) [Example 65, 4-[2-(2,3,3a,4,5,7,8,8a-octahydro-1H-pyrrolo[3,4-d]azepin-6-yl)-5-(1-methylpyrazolo[3,4-b]pyridin-5-yl)pyrimidin-4-yl]benzonitrile]
< 100 nM	< 100 nM	Cn1cnc2cc(-c3cnc(N4CCC(N)CC4)nc3-c3ccc(C#N)cc3)cnc21 [Example 66, 4-[2-(4-aminopiperidin-1-yl)-5-(3-methylimidazo[4,5-b]pyridin-6-yl)pyrimidin-4-yl]benzonitrile]
< 100 nM	< 100 nM	N#Cc1ccc(-c2nc(N3CCC(N)CC3)ncc2C#CC2(O)CCCC2)cc1 [Example 70, 4-{2-(4-aminopiperidin-1-yl)-5-[2-(1-hydroxycyclopentyl)ethynyl]pyrimidin-4-yl]benzonitrile]
< 100 nM	< 100 nM	Cn1nnc2cc(-c3cnc(N4CCC(N)CC4)nc3-c3ccc(C#N)cc3)ccc21 [Example 72, 4-[2-(4-aminopiperidin-1-yl)-5-(1-methylbenzotriazol-5-yl)pyrimidin-4-yl]benzonitrile]
< 100 nM	< 100 nM	N#Cc1ccc(-c2nc(N3CCC(N)CC3)ncc2-c2ccc3c(c2)ncn3C(F)F)cc1 [Example 79, 4-[2-(4-aminopiperidin-1-yl)-5-[1-(difluoromethyl)benzimidazol-5-yl]pyrimidin-4-yl]benzonitrile]
< 100 nM	< 100 nM	N#Cc1ccc(-c2nc(N3CCC(N)CC3)ncc2-c2cnn(CC(F)(F)F)c2)cc1F [Example 80, 4-[2-(4-aminopiperidin-1-yl)-5-[1-(2,2,2-trifluoroethyl)pyrazol-4-yl]pyrimidin-4-yl]-2-fluorobenzonitrile]
< 100 nM	< 100 nM	COc1ccc(-c2cnc(N3CCC(N)CC3)nc2-c2ccc(C#N)cc2)cc1 [Example 83, 4-[2-(4-aminopiperidin-1-yl)-5-(4-methoxyphenyl)pyrimidin-4-yl]benzonitrile]
